Experimental data as given in paper PMC5071164 (Biochimica et biophysica acta, 2016).
Where two headings read alike, the source gives them in different places.

Key:
[1] = target: T1, Farnesoid X receptor (FXR) ligand binding domain (Homo sapiens, UniProt Q96RI1); test: Intrinsic tryptophan fluorescence quenching titration
T1 sequence (Q96RI1 203-486): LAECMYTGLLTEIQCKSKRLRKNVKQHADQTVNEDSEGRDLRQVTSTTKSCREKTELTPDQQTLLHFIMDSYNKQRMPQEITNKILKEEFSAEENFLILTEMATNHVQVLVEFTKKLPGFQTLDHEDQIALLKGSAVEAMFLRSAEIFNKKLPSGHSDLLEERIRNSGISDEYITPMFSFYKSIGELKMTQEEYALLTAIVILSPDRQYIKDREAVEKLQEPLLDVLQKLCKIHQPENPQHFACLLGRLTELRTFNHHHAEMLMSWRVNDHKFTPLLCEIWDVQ

[2] = target: T1, Farnesoid X receptor (FXR) ligand binding domain; test: as above; remark: listed apart in the source

| Structure (SMILES) | Kd [1] [nM] | Kd [2] [nM] |
| --- | --- | --- |
| COc1cc(O)c(CC=C(C)C)c(O)c1C(=O)/C=C/c1ccc(O)cc1 [XN, xanthohumol] | 2680 ± 110 |  |
| COc1cc(O)c(CC=C(C)C)c2c1C(=O)CC(c1ccc(O)cc1)O2 (stereo not drawn) [IX, isoxanthohumol] |  | 5920 ± 250 |
| CC(C)=CCc1c(O)cc(O)c2c1O[C@H](c1ccc(O)cc1)CC2=O [8-PN, 8-prenylnaringenin] |  | 2200 ± 50 |
